From patent US20140039018A1 (priority 2011, published 2014)
Values after ≈ are worked out from the molar mass of the structure shown. Where two headings read alike, the source gives them in different places.

Columns and labels:
[1] = test system: Fusarium graminearum H-3 strain; type: in vivo, barley; details: 18% wettable powder, 2000-fold dilution, 1500 L/ha, once in browning stage
[2] = test system: Fusarium graminearum Fg15 strain; assay: microbe, parasite or virus in culture; type: cell-based; details: FG15STRAIN, read-out: MIC value (minimum inhibition concentration)
[3] = test system: Fusarium graminearum H-3 strain; type: in vivo, wheat
[4] = test system: Fusarium graminearum Fg15 strain; type: cell-based; details: 25° C., 1 week

CC1(C)CCC(Cc2ccc(Cl)cc2)C1(O)Cn1cncn1 (stereo not shown) [metconazole]
DON accumulation level in barley grain at the time of cropping [1]: 704 ppb | DON accumulation level in barley grain after storage for a half year ([1]; room temperature storage for a half year after cropping): 407 ppb | MIC [2]: 1.56 µg/mL (≈ 4.88 µM) | mycotoxin (DON) in wheat grains versus grain cropped without application ([3]; 18% wettable powder, 2000-fold dilution, 1500 L/ha, once in yellowing stage or each once in flowering and yellowing stage, 2 weeks after cropping, FIG. 2): significantly smaller amount of the toxin | accumulation of the toxin in wheat grains after cropping ([3]; application in the pre-cropping yellowing stage): inhibited | toxin (DON) amount per cell weight versus medium containing no metconazole ([4]; PDA medium containing metconazole at 0.1 ppm): significantly smaller | toxin (DON) amount per cell weight versus medium containing no metconazole ([4]; PDA medium containing metconazole at 0.2 ppm): significantly smaller
